Laboratory results as given in US20080182751A1, “Brassicaceae Plant Materials and Method for Their Use as Biopesticides” (Idaho Research Foundation, Inc., priority 2006, published 2008).

Legend:
[1] = system: weeds; conditions: Harvey 1931; cited from earlier work
[2] = system: cotton; conditions: solutions sprayed directly on vegetative growth (Harvey 1931); cited from earlier work
[3] = system: wheat; conditions: effect no longer observed at 69 days post application (Bissey and Butler 1934); cited from earlier work
[4] = Stability of 4-hydroxybenzyl isothiocyanate in buffered aqueous solutions (citrate buffers); assay type: physicochemical; conditions: citrate buffer
Protocol: Stability of 4-Hydroxybenzyl Isothiocyanate in Buffered Media. Partially purified 4-hydroxybenzyl isothiocyanate was prepared by suspending 500 grams of S. alba seed meal in 2 liters of deionized water and extracting the mixture with 500 milliliters of ethyl acetate for 24 hours. The ethyl acetate extract was separated by decanting the top organic layer after centrifugation, dried with 100 g of anhydrous sodium sulfate over night, and concentrated under vacuum at laboratory temperature. The crude 4-hydroxybenzyl isothiocyanate extract was further purified by preparative column chromatography on silica gel (500 grams). […] Content of 4-hydroxybenzyl isothiocyanate within the fractions was verified by GC-MS using instrumentation and conditions as described previously. Fractions containing 4-hydroxybenzyl isothiocyanate were combined and concentrated under vacuum at laboratory temperature producing a yellowish, viscous fluid displaying only 4-hydroxybenzyl isothiocyanate and pentane/methylene chloride solvent peaks in the GC chromatogram. No further concentration of 4-hydroxybenzyl isothiocyanate was achieved using vacuum distillation because of its instability.
The pH stability of 4-hydroxybenzyl isothiocyanate was analyzed by incubating 25 μL of partially purified extract dissolved in 25 milliliters of eight different buffers with pH values ranging from 3.0 to 6.5 (FIG. 7). 0.1 M buffers were used, and were prepared by mixing 0.2 M sodium citrate and citric acid solutions in pre-calculated ratios ranging from 4 milliliters sodium citrate and 46 milliliters citric acid to 41 milliliters sodium citrate and 9 milliliters citric acid in a total volume of […]. Actual pH values of the buffers of 3.03, 3.52, 4.02, 4.49, 5.00, 5.46, 5.91, and 6.52 were verified using an Orion model 420A pH meter (Orion Research, Boston). At specific times during the incubation a 1-milliliter sample was withdrawn from the buffered reaction solution with a syringe and injected into a Waters Integrity HPLC system (2695 separation module, 996 PDA, and TMD) equipped with a 150×2 mm i.d., 5 μm Aqua C-18 column (Phenomenex). The instrument was operated at a constant flow rate of 200 μL/min with a gradient from 5 to 35% of methanol during each 30-minute run. Half-lives for 4 hydroxybenzyl isothiocyanate were estimated from straight lines obtained by plotting the natural logarithm of the normalized concentration versus time (FIG. 7). This experiment was repeated twice with two different meal extracts acquired by the same procedures from the same seed material. Half-lives from only one of the experiments are reported since the results for both experiments were similar.

[5] = pH stability of 4-OH benzyl ITC in 5 buffer solutions; assay type: physicochemical
Protocol: The pH stability of 4-OH benzyl ITC was assayed by incubating it in 5 buffer solutions (sodium acetate/acetic acid from pH range 3 to 5 and monosodium phosphate/phosphatic acid for pH above 5) with pHs ranging from 3.0 to 7.0. At specific times during the incubation a sample from the incubated solution was withdrawn with a syringe and injected into an HPLC-PDA (Waters Integrity system, separation module 2695, photodiode array detector 996, column Phenomenex Aqua C-18, 5 μm, 150×2 mm, with a constant flow rate of 200 μl/minute gradient from 5 to 35% of methanol in 30 minutes). The amount of 4-OH benzyl ITC was determined using calibration with benzyl ITC.

Compound | rate necessary for complete plant kill for 4 months [1] | rate removing a large percentage of the weeds [1] [kilograms/SCN^− ha] | rate at which cotton defoliation was possible [2] [kilograms SCN^−/ha] | application rate causing inhibition of wheat germination [3] [kilograms SCN^−/ha] | half-life ([4]; pH 3.0 buffer) [h] | half-life ([4]; pH 3.5 buffer) [h] | half-life ([4]; pH 4.0 buffer) [h] | half-life ([4]; pH 4.5 buffer) [h] | half-life ([4]; pH 5.0 buffer) [h] | half-life ([4]; pH 5.5 buffer) [h] | half-life ([4]; pH 6.0 buffer) [h] | half-life ([4]; pH 6.5 buffer) [h] | Half Life ([5]; pH 3) [h] | Half Life ([5]; pH 4) [h] | Half Life ([5]; pH 5) [h] | Half Life ([5]; pH 6) [h] | Half Life ([5]; pH 7, listed as isothiocyanate precursor) [h] | half-life ([5]; sodium acetate/acetic acid buffer, pH 3.0) [h]
N#CS [SCN^−, ionic thiocyanate] | 1,366 kg SCN^−/ha | 137 | 8.6 | 342 |  |  |  |  |  |  |  |  |  |  |  |  |  | 
Oc1ccc(CN=C=S)cc1 [4-hydroxybenzyl isothiocyanate] |  |  |  |  | 5.35 | 5.2 | 4.5 | 3.25 | 1.67 | 0.817 | 0.267 | 0.1 | 3.6 | 2.1 | 1.5 | 0.1 | 0.08 | 3.6
